Experimental data taken from EP0108147B1, “Use of a protoberberine alkaloid and composition containing same” (MAROKO, Peter R., priority 1982, dated 1983).

Tested on: dogs
Assay: Protocol RK: systemic arterial pressure and heart rate, pressure not held constant, two doses
Type: in vivo
Description: The protocol was the same as described above except that in these dogs, contrary to the previously reported series, the systolic arterial pressure was not maintained constant. Also, the dogs were instrumented only with an electrocardiogram (with lead aVF being constantly recorded), and polyethylene cannula in aorta introduced through the carotid artery to measure aortic pressures, and another cannula in the jugular vein for drug administration. Average heart rate (measured by continuously monitored electrocardiographic lead aVF) was reduced from 146 ± 4 (mean ± 1 S.E.M.) to […] (p <0.1) after the first 45 minutes. After the second 45 minutes heart beat rate was further reduced to […] (p <0.01 ).

## COc1ccc2cc3[n+](cc2c1OC)CCc1cc2c(cc1-3)OCO2 [berberine]
After 90 minutes, from 114 ± 7
  mean pressure: 96 ± 5 mmHg
End of the experiment, from an average of 28
  pulse pressure (systolic minus diastolic pressure): 35 mmHg
First dose, 5 minutes, from 114 ± 7
  Mean systemic arterial pressure: 87 ± 5 mmHg
First dose, 10 minutes
  Mean systemic arterial pressure: 93 ± 4 mmHg
First dose, 15 minutes
  Mean systemic arterial pressure: 92 ± 5 mmHg
First dose, 30 minutes
  Mean systemic arterial pressure: 101 ± 7 mmHg
First dose, 45 minutes
  Mean systemic arterial pressure: 101 ± 7 mmHg
Second dose, 5 minutes
  Mean systemic arterial pressure: 94 ± 4 mmHg
Second dose, 10 minutes
  Mean systemic arterial pressure: 95 ± 6 mmHg
Second dose, 15 minutes
  Mean systemic arterial pressure: 95 ± 5 mmHg
Second dose, 30 minutes
  Mean systemic arterial pressure: 97 ± 5 mmHg
Second dose, 45 minutes
  Mean systemic arterial pressure: 97 ± 5 mmHg
